Measured values taken from patent US20250230165A1, “HETEROCYCLIC COMPOUNDS FOR USE IN THE TREATMENT OF CANCER” (ARTIOS PHARMA LIMITED, priority 2021, published 2025).

Biological target: T1, Human Polθ polymerase domain (aa1820-2590) (Homo sapiens, UniProt O75417)
T1 construct: Human Polθ polymerase domain (aa1820-2590) was expressed in E. coli; made in house; host or cells: E. coli
T1 sequence (O75417 1820-2590): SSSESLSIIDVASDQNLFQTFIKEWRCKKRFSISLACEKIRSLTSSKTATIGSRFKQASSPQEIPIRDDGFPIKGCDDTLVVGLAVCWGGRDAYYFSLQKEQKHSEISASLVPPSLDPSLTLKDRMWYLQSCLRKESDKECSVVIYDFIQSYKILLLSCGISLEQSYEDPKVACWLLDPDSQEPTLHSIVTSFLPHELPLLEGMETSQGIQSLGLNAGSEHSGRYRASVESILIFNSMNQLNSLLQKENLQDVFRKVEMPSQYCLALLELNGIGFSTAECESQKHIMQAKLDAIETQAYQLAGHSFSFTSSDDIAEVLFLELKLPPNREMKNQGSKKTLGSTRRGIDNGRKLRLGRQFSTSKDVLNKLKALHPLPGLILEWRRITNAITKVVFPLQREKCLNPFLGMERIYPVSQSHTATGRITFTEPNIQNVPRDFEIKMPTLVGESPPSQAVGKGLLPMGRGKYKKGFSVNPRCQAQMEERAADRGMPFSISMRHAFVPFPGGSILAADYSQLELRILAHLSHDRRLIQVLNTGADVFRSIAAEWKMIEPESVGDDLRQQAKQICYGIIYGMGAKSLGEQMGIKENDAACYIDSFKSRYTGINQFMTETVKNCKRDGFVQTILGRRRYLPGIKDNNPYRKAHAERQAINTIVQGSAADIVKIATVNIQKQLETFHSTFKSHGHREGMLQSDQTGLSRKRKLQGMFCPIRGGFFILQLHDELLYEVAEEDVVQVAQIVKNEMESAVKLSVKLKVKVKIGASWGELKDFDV
Test: Polθ Polymerase Domain Kinact/KI Assay (PicoGreen)
Type: biochemical
Conditions: 0.8 nM Polθ, 100 nM DNA substrate, kobs vs [I] fit for 2-step covalent inhibitor
Summary of the method: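 Time-dependent inhibition was followed with 0.8 nM polymerase domain, 100 nM DNA substrate and […], reactions quenched over 60 min and quantified by PicoGreen. Kinact and KI came from a secondary plot of kobs against inhibitor concentration.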

| Compound | Kinact/Kl [M⁻¹ s⁻¹] |
| --- | --- |
| C=CC(=O)N1CCn2c(nc(CN3C[C@H]4CC(=O)N(c5cc(C(F)(F)F)cc(C)n5)[C@@H]4C(=O)N(C)c4cccc(C)c43)c2C)C1 [Example 74, (3aR,11aS)-5-((7-acryloyl-3-methyl-5,6,7,8-tetrahydroimidazo[1,2-a]pyrazin-2-yl)methyl)-6,10-dimethyl-1-(6-methyl-4-(trifluoromethyl)pyridin-2-yl)-1,3a,4,5,10,11a-hexahydro-2H-benzo[b]pyrrolo[2,3-f][1,4]diazocine-2,11(3H)-dione] | 5.83e+06 |
| C=CC(=O)N1CC(N2CCN(C(=O)CN3C[C@H]4CC(=O)N(c5cc(C(F)(F)F)cc(C)n5)[C@@H]4C(=O)N(C)c4cccc(Cl)c43)CC2)C1 [Example 75, (3aR,11aS)-5-(2-(4-(1-acryloylazetidin-3-yl)piperazin-1-yl)-2-oxoethyl)-6-chloro-10-methyl-1-(6-methyl-4-(trifluoromethyl)pyridin-2-yl)-1,3a,4,5,10,11a-hexahydro-2H-benzo[b]pyrrolo[2,3-f][1,4]diazocine-2,11(3H)-dione] | 1.32e+06 |
| C=C(COC(C)=O)C(=O)N1CC(OCCCN2C[C@H]3CC(=O)N(c4cc(C(F)(F)F)cc(C)n4)[C@@H]3C(=O)N(C)c3cccc(Cl)c32)C1 [Example 78, 2-(3-(3-((3aR,11aS)-6-chloro-10-methyl-1-(6-methyl-4-(trifluoromethyl)pyridin-2-yl)-2,11-dioxo-1,2,3,3a,4,10,11,11a-octahydro-5H-benzo[b]pyrrolo[2,3-f][1,4]diazocin-5-yl)propoxy)azetidine-1-carbonyl)allyl Acetate] | 2.06e+06 |
| C=C(CN(C)C)C(=O)N1CC(OCCCN2C[C@H]3CC(=O)N(c4cc(C(F)(F)F)cc(C)n4)[C@@H]3C(=O)N(C)c3ccccc32)C1 [Example 81, (3aR,11aS)-5-(3-((1-(2-((dimethylamino)methyl)acryloyl)azetidin-3-yl)oxy)propyl)-10-methyl-1-(6-methyl-4-(trifluoromethyl)pyridin-2-yl)-1,3a,4,5,10,11a-hexahydro-2H-benzo[b]pyrrolo[2,3-f][1,4]diazocine-2,11(3H)-dione] | 2.03e+06 |
| C=C(CN(C)C)C(=O)N1CCN(C(=O)CCN2C[C@H]3CC(=O)N(c4cc(C(F)(F)F)cc(C)n4)[C@@H]3C(=O)N(C)c3cccc(Cl)c32)CC1 [Example 86, (3aR,11aS)-6-chloro-5-(3-(4-(2-((dimethylamino)methyl)acryloyl)piperazin-1-yl)-3-oxopropyl)-10-methyl-1-(6-methyl-4-(trifluoromethyl)pyridin-2-yl)-1,3a,4,5,10,11a-hexahydro-2H-benzo[b]pyrrolo[2,3-f][1,4]diazocine-2,11(3H)-dione] | 3.49e+06 |
| C=CC(=O)Nc1ccc(CN2C[C@H]3CC(=O)N(c4cc(C(F)(F)F)cc(C)n4)[C@@H]3C(=O)N(C)c3cccc(C)c32)cc1 [Example 87, N-(4-(((3aR,11aS)-6,10-dimethyl-1-(6-methyl-4-(trifluoromethyl)pyridin-2-yl)-2,11-dioxo-1,2,3,3a,4,10,11,11a-octahydro-5H-benzo[b]pyrrolo[2,3-f][1,4]diazocin-5-yl)methyl)phenyl)acrylamide] | 810000 |
| Cc1cc(C(F)(F)F)cc(N2C(=O)C[C@@H]3CN(Cc4ccc(NC(=O)C5=CCCNC5)cc4)c4c(C)cccc4N(C)C(=O)[C@H]32)n1 [Example 88, N-(4-(((3aR,11aS)-6,10-dimethyl-1-(6-methyl-4-(trifluoromethyl)pyridin-2-yl)-2,11-dioxo-1,2,3,3a,4,10,11,11a-octahydro-5H-benzo[b]pyrrolo[2,3-f][1,4]diazocin-5-yl)methyl)phenyl)-1,2,5,6-tetrahydropyridine-3-carboxamide] | 4.75e+06 |
| C=CC(=O)Nc1ccc(CN2C[C@H]3CC(=O)N(c4cc(C(F)(F)F)cc(C)n4)[C@@H]3C(=O)N(C)c3cccc(C)c32)cc1OC [Example 90, N-(4-(((3aR,11aS)-6,10-dimethyl-1-(6-methyl-4-(trifluoromethyl)pyridin-2-yl)-2,11-dioxo-1,2,3,3a,4,10,11,11a-octahydro-5H-benzo[b]pyrrolo[2,3-f][1,4]diazocin-5-yl)methyl)-2-methoxyphenyl)acrylamide] | 2.09e+06 |

The next lines start with the values.

| Kinact/Kl [M⁻¹ s⁻¹] | Compound |
| --- | --- |
| 2.55e+06 | C=C(CN(C)C)C(=O)N1CC(OCCCN2C[C@H]3CC(=O)N(c4cc(C(F)(F)F)cc(C)n4)[C@@H]3C(=O)N(C)c3cccc(C)c32)C1 [Example 77, (3aR,11aS)-5-(3-((1-(2-((dimethylamino)methyl)acryloyl)azetidin-3-yl)oxy)propyl)-6,10-dimethyl-1-(6-methyl-4-(trifluoromethyl)pyridin-2-yl)-1,3a,4,5,10,11a-hexahydro-2H-benzo[b]pyrrolo[2,3-f][1,4]diazocine-2,11(3H)-dione] |
| 1.46e+06 | Cc1cc(C(F)(F)F)cc(N2C(=O)C[C@@H]3CN(CCCOC4CN(C(=O)/C(Cl)=C/CN(C)C)C4)c4c(F)cccc4N(C)C(=O)[C@H]32)n1 [Example 79, (3aR,11aS)-5-(3-((1-((Z)-2-chloro-4-(dimethylamino)but-2-enoyl)azetidin-3-yl)oxy)propyl)-6-fluoro-10-methyl-1-(6-methyl-4-(trifluoromethyl)pyridin-2-yl)-1,3a,4,5,10,11a-hexahydro-2H-benzo[b]pyrrolo[2,3-f][1,4]diazocine-2,11(3H)-dione] |
| 810000 | C/C=C(\CN(C)C)C(=O)N1CC(OCCCN2C[C@H]3CC(=O)N(c4cc(C(F)(F)F)cc(C)n4)[C@@H]3C(=O)N(C)c3cccc(F)c32)C1 [Example 80, (3aR,11aS)-5-(3-((1-((E)-2-((dimethylamino)methyl)but-2-enoyl)azetidin-3-yl)oxy)propyl)-6-fluoro-10-methyl-1-(6-methyl-4-(trifluoromethyl)pyridin-2-yl)-1,3a,4,5,10,11a-hexahydro-2H-benzo[b]pyrrolo[2,3-f][1,4]diazocine-2,11(3H)-dione] |
| 920000 | Cc1cc(C(F)(F)F)cc(N2C(=O)C[C@@H]3CN(CCCOC4CN(C(=O)C5=CCCNC5)C4)c4c(C)cccc4N(C)C(=O)[C@H]32)n1 [Example 82, (3aR,11aS)-6,10-dimethyl-1-(6-methyl-4-(trifluoromethyl)pyridin-2-yl)-5-(3-((1-(1,2,5,6-tetrahydropyridine-3-carbonyl)azetidin-3-yl)oxy)propyl)-1,3a,4,5,10,11a-hexahydro-2H-benzo[b]pyrrolo[2,3-f][1,4]diazocine-2,11(3H)-dione] |
| 620000 | Cc1cc(C(F)(F)F)cc(N2C(=O)C[C@@H]3CN(CCCCCNC(=O)/C=C/CN(C)C)c4c(C)cccc4N(C)C(=O)[C@H]32)n1 [Example 83, (E)-N-(5-((3aR,11aS)-6,10-dimethyl-1-(6-methyl-4-(trifluoromethyl)pyridin-2-yl)-2,11-dioxo-1,2,3,3a,4,10,11,11a-octahydro-5H-benzo[b]pyrrolo[2,3-f][1,4]diazocin-5-yl)pentyl)-4-(dimethylamino)but-2-enamide] |
| 3.61e+06 | C=C(CN(C)C)C(=O)NCCCCCN1C[C@H]2CC(=O)N(c3cc(C(F)(F)F)cc(C)n3)[C@@H]2C(=O)N(C)c2cccc(C)c21 [Example 84, N-(5-((3aR,11aS)-6,10-dimethyl-1-(6-methyl-4-(trifluoromethyl)pyridin-2-yl)-2,11-dioxo-1,2,3,3a,4,10,11,11a-octahydro-5H-benzo[b]pyrrolo[2,3-f][1,4]diazocin-5-yl)pentyl)-2-((dimethylamino)methyl)acrylamide] |
| 1.82e+06 | C=C(CN(C)C)C(=O)NCCOCCN1C[C@H]2CC(=O)N(c3cc(C(F)(F)F)cc(C)n3)[C@@H]2C(=O)N(C)c2cccc(C)c21 [Example 85, N-(2-(2-((3aR,11aS)-6,10-dimethyl-1-(6-methyl-4-(trifluoromethyl)pyridin-2-yl)-2,11-dioxo-1,2,3,3a,4,10,11,11a-octahydro-5H-benzo[b]pyrrolo[2,3-f][1,4]diazocin-5-yl)ethoxy)ethyl)-2-((dimethylamino)methyl)acrylamide] |
| 2.4e+06 | C/C=C(\CN(C)C)C(=O)Nc1ccc(CN2C[C@H]3CC(=O)N(c4cc(C(F)(F)F)cc(C)n4)[C@@H]3C(=O)N(C)c3cccc(C)c32)cc1 [Example 89, (E)-N-(4-(((3aR,11aS)-6,10-dimethyl-1-(6-methyl-4-(trifluoromethyl)pyridin-2-yl)-2,11-dioxo-1,2,3,3a,4,10,11,11a-octahydro-5H-benzo[b]pyrrolo[2,3-f][1,4]diazocin-5-yl)methyl)phenyl)-2-((dimethylamino)methyl)but-2-enamide] |
